Measurements as given in PMC6832513, “Antimalarial Properties of Dunnione Derivatives as NQO2 Substrates” (Molecules, 2019).
Several values for one entry are separate records, joined by “and”; a condition that tells them apart may be missing. Equal entries are not always repeated. Entries after “also recorded” stand apart in the source; their conditions may differ. Where two headings read alike, the source gives them in different places.

What was measured:
[1] = system: P. chabaudi chabaudi; assay: Four-days suppressive test, P. chabaudi chabaudi mice model (uncomplicated malaria); assay type: in vivo, Plasmodium chabaudi chabaudi in Swiss mice; conditions: for Pcc parasite density compared to DMSO treatment: 50 mg/kg intraperitoneal D0 to D3, D8 (peak of parasitemia), p < 0.0001; for weight development at D11 after Pcc infection: 50 mg/kg intraperitoneal D0 to D3, D11; for death after Pcc infection: 50 mg/kg intraperitoneal D0 to D3, monitored 13 days
Method: As previously described, the four-days suppressive standard test described by Knight and Peters was used to evaluate antimalarial activity of Compounds 1 and 3. P. chabaudi chabaudi (Pcc) and P. berghei ANKA (PbA) infections in Swiss mice were used as experimental models for uncomplicated and cerebral malaria, respectively. […] On the first day (D0), mice were inoculated intraperitoneally with 0.2 mL of infected blood containing about 1 × 10^6 parasitized erythrocytes. […] All mice groups were treated similarly for four consecutive days (D0–D3). Weight, parasitemia and survival were followed daily. To follow peripheral parasite density, thin blood smears were made daily from tail blood from D3 to D14. Blood smears were fixed with methanol and stained with a fast-acting variation of the May–Grünwald Giemsa staining (RAL 555 kit, RAL diagnostics). Average percentage chemosuppression was calculated at D8 for both infection models as ((A − B)/A) × 100 where A is the average percentage parasitemia in the negative control group and B is the average percentage parasitemia in the test group. Survival was monitored twice daily. […]

[2] = system: P. falciparum strain FcB1; assay: In vitro antiplasmodial activity, SYBR Green I-based fluorescence assay; assay type: cell-based, Plasmodium falciparum
Method: The in vitro anti-malarial activity was investigated using the SYBR Green I-based fluorescence assay. The asexual intra-erythrocytic stage of P. falciparum laboratory strain FcB1 (chloroquine-resistant strain) was maintained in RPMI 1640 medium containing l-glutamine 200 µM, Hepes 25 mM and 5% human serum (Etablissement Français du Sang—EFS, Toulouse, France). For anti-malarial drug assays, stock solutions of compounds were diluted serially in RPMI 1640 culture medium to test final concentrations between 0.001 and 1 µg/mL in triplicates in a 96-well plate. The final concentration of DMSO was 0.5%. A suspension of sorbitol-synchronized, infected red blood cells (iRBCs) was adjusted to 1% parasitemia and 2% hematocrit in complete medium and added to the wells. Negative controls were prepared with a suspension of iRBCs and 0.5% DMSO. Chloroquine was used as the positive control. Test plates were incubated at 37 °C for 48 h. Afterwards, 100 μL SYBR Green I fluorescent lysis buffer were added to each well and incubated in a dark place at room temperature for 2 h. Fluorescence data were acquired using a fluorescence plate reader (BMG Fluostar Galaxy Labtech) with excitation and emission wavelengths at 485 nm and 518 nm, respectively. The fluorescence values (after subtraction of the background fluorescence of the non-parasitized RBCs) were plotted against the log of the drug concentration, and analyzed by non-linear regression (sigmoidal dose response/variable slope equation) to yield the IC50 (50% inhibitory concentration) that served as a measure of the anti-malarial activity.

[3] = Cytotoxic evaluation on the Hela cell line (MTT assay); assay type: cell-based; conditions: human, Hela cells
Method: The evaluation of the tested molecules’ cytotoxicity on the Hela cell line was conducted according to the method of Mosman with slight modifications. Briefly, cells (1 × 10^5 cells/mL) in 100 µL of complete medium, (MEM supplemented with 10% fetal bovine serum, 2 mM L-glutamine and antibiotics (100 U/mL penicillin and 100 µg/mL streptomycin) were seeded into each well of the 96-well plates and incubated at 37 °C and 5% CO2. After a 24 h incubation, 100 µL of medium with various product concentrations and appropriate controls were added and the plates were incubated for 72 h at 37 °C and 5% CO2. Each plate-well was then microscope-examined to detect possible precipitate formation before the medium was aspirated from the wells. MTT solution (100 µL, 0.5 mg/mL in RPMI) was then added to each well. Cells were incubated for 2 h at 37 °C and 5% CO2. After this time, the MTT solution was removed and DMSO (100 µL) was added to dissolve the resulting formazan crystals. Plates were shaken vigorously (300 rpm) for 5 min. The absorbance was measured at 570 nm with a microplate spectrophotometer (Eon BioTek). DMSO was used as blank and doxorubicin (purchased from Sigma Aldrich) as positive control. CC50 were calculated by non-linear regression analysis processed on dose response curves, using TableCurve 2D V5 software (San Jose, CA, USA). CC50 values represent the mean value calculated from three independent experiments.

[4] = Acute toxicity in healthy Swiss mice; assay type: in vivo; conditions: for weight variation compared to the vehicle control group: healthy Swiss mice, 50 mg/kg intraperitoneal, Days 7, 14 and 20; for mortality or major behavioral changes: mouse, in vivo, ip, 50 mg/kg
Method: Compounds 1 and 3 were diluted in 50% DMSO and tested at 50 mg/kg. Protocols used for acute oral toxicity measurement were previously described. Briefly, mice were randomly divided into three groups of three mice and treated once a day from D0 to D3 by the intraperitoneal route with 200 µL of Compound 1 or Compound 3 at 50 mg/kg, or DMSO 50%.

[5] = system: P. berghei ANKA; assay: Four-days suppressive test, P. berghei ANKA mice model (cerebral malaria); assay type: in vivo, Plasmodium berghei ANKA in Swiss mice; conditions: for survival rate on D10: 50 mg/kg intraperitoneal D0 to D3, D10
Method: As previously described, the four-days suppressive standard test described by Knight and Peters was used to evaluate antimalarial activity of Compounds 1 and 3. P. chabaudi chabaudi (Pcc) and P. berghei ANKA (PbA) infections in Swiss mice were used as experimental models for uncomplicated and cerebral malaria, respectively. […] On the first day (D0), mice were inoculated intraperitoneally with 0.2 mL of infected blood containing about 1 × 10^6 parasitized erythrocytes. […] All mice groups were treated similarly for four consecutive days (D0–D3). Weight, parasitemia and survival were followed daily. To follow peripheral parasite density, thin blood smears were made daily from tail blood from D3 to D14. Blood smears were fixed with methanol and stained with a fast-acting variation of the May–Grünwald Giemsa staining (RAL 555 kit, RAL diagnostics). Average percentage chemosuppression was calculated at D8 for both infection models as ((A − B)/A) × 100 where A is the average percentage parasitemia in the negative control group and B is the average percentage parasitemia in the test group. Survival was monitored twice daily. The percentage survival was determined over a period of 21 days (D0–D20) and compared between groups.

[6] = target: T1, NQO2 (Homo sapiens, UniProt P16083); assay: EPR measurement of free radicals (ROS) produced after metabolism by NQO2; assay type: biochemical; conditions: for radical production after reduction by NQO2: EPR with DMPO spin trap; for radical production after adding the specific NQO2 inhibitor S29434: S29434 30 µM; for ROS after NQO2 Reduction: purified NQO2 20 µg/mL, compound 125 µM, BNAH 1 mM, DMPO 125 mM, grades - to + + + + +
T1 construct: The experiments were conducted with purified enzyme NQO2 (20 µg/mL)
T1 sequence (P16083 1-231): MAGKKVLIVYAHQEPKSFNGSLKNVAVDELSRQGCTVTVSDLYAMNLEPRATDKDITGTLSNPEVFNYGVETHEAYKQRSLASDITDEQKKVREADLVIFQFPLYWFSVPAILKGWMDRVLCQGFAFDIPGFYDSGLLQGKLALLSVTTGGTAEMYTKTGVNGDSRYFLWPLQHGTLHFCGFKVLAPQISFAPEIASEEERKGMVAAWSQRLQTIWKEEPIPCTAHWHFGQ
Method: As in previous work, we used an indirect assay to characterize the substrates. […] Using the capacity of NQO2 to reduce quinones into hydroquinones or quinols, we incubated the substrate candidates with the enzyme and its co-substrate, a synthetic hydride donor, N-benzyldihydronicotinamide. […] Thus, using an EPR-based assay, it was possible to evaluate the potency of the process by quantifying those bursts by measuring for the presence of free radicals. The rationale of the process was based on the simple idea that such substrates would generate bursts of ROS, which are particularly toxic for infected red cells.
We measured the ability of the selected compounds to produce superoxide radicals during the redox cycle of NQO2 by EPR spectroscopy. The following compounds were used as molecular tools: Menadione (Figure 1) as a reference compound and NQO2 substrate, S29434 as a specific NQO2 inhibitor [17] and dimethyl-pyrroline-N-oxide (DMPO) as a spin trap reagent to characterize ROS.
The experiments were conducted with purified enzyme NQO2 (20 µg/mL), DMPO (125 mM), tested compounds (125 µM) and BNAH (1 mM). For inhibition assays, we added S29434 (30 µM). All analyses were performed at room temperature. EPR spectra were recorded with a Bruker EMX-8/2.7 (9.86 GHz) with a high-sensitivity cavity (4119/HS 0205) and a gaussmeter (Bruker, Wissembourg, France), at X-band. For analyses, we used a flat quartz cell, FZKI160-5 × 0.3 mm (Magnettech, Berlin, Germany). We performed data processing and spectrum acquisition with WINEPR software (Bruker). Scanning parameters were: Number of scans, 5; magnetic field, 3460–3560 G; sweep width, 100 G; scan rate, 1.2 G/s; modulation amplitude, 1 G; sweep time, 83.88 s; time constant, 40.96 ms; modulation frequency, 100 kHz; and microwave power, 20 mW. The EPR spectra were analyzed as reported previously. The EPR spectrum was presented with the magnetic field on the x-axis in gauss (g) and the intensity of the peaks on the y-axis in arbitrary units (a.u.).

[7] = 50 mg/kg intraperitoneal D0 to D3, D8
[8] = Plasmodium falciparum, FCB1, 48 h, P. falciparum FcB1 (chloroquine-resistant strain), 48 h, read-out: IC50
[9] = 50 mg/kg intraperitoneal D0 to D3

Compound	IC50 [2, 8]	radical production after reduction by NQO2 [6]	ROS after NQO2 Reduction ([6]; EPR, key not given)	CC50 at 72 h [3]	TI (Therapeutic Index = CC50/IC50) [2]	radical production after adding the specific NQO2 inhibitor S29434 ([6]; EPR)	further results
CCN(CC)CCCC(C)Nc1ccnc2cc(Cl)ccc12 (stereo not shown) [Chloroquine, chloroquine, reference compound]	–	–	–	–	–	–	% inhibition of parasite density at D8 ([1]; chloroquine 10 mg/kg intraperitoneal D0 to D3, D8): 98.2%; IC50 ([2]; Plasmodium falciparum, FCB1, 48 h): 0.164 ± 0.055 nM
COc1cccc2c1C1=C(C(=O)C2=O)C(C)(C)C(C)O1 (stereo not shown) [Compound 1]	633 ± 740 nM	produced radicals; also recorded: induced a production of ROS	+ +	2420 ± 905 nM	3.83	decreased	% inhibition of parasite density at D8 [1, 7]: 74.8% and 90.6%; Pcc parasite density compared to DMSO treatment [1]: highly reduced; weight development at D11 after Pcc infection [1]: lost more weight than other groups; death after Pcc infection [1]: did not cause any death; weight variation compared to the vehicle control group [4]: similar; mortality or major behavioral changes [4]: did not cause mortality or major behavioral changes; effect on weight loss and parasitemia during PbA infection [5, 9]: did not limit either weight loss or parasitemia; superiority over DMSO (survival) [5, 9]: statistically significant until D15; survival rate on D10 [5]: 80%
COc1ccc2c(c1)C(=O)C(=O)C1=C2OC(C)C1(C)C (stereo not shown) [Compound 3]	845 ± 334 nM	produced radicals; also recorded: induced a production of ROS	+ + +	1430 ± 314 nM	1.70	decreased	% inhibition of parasite density at D8 [1, 7]: 90.6% and 74.8%; Pcc parasite density compared to DMSO treatment [1]: highly reduced; weight development at D11 after Pcc infection [1]: lost more weight than other groups; death after Pcc infection [1]: did not cause any death; efficacy on parasite density compared to the CQ treatment ([1]; 50 mg/kg intraperitoneal vs CQ, D8): less effective; weight variation compared to the vehicle control group [4]: similar; mortality or major behavioral changes [4]: did not cause mortality or major behavioral changes; effect on weight loss and parasitemia during PbA infection [5, 9]: did not limit either weight loss or parasitemia; survival rate on D10 [5]: 100%
COc1ccc2c(c1)C1=C(CCC(C)(C)O1)C(=O)C2=O [Compound 7]	753 ± 484 nM	no radicals were detected	–	1660 ± 368 nM	2.21	–	–
COc1cccc2c1C(=O)c1c(O)c3c(c(O)c1C2=O)C[C@@](O)(C(=O)CO)C[C@@H]3O[C@H]1C[C@H](N)[C@H](O)[C@H](C)O1 [Doxorubicin, doxorubicin, reference compound]	–	–	–	311 ± 478 nM	–	–	–
CC1=CC(=O)c2ccccc2C1=O [Menadione, menadione, reference compound]	–	–	+ + + + +	–	–	–	–

Second part, led by results:

IC50 [2, 8]	radical production after reduction by NQO2 [6]	ROS after NQO2 Reduction ([6]; EPR, key not given)	Compound	CC50 at 72 h [3]	TI (Therapeutic Index = CC50/IC50) [2]	radical production after adding the specific NQO2 inhibitor S29434 ([6]; EPR)	further results
630 to 850 nM	no radicals were detected	–	COc1ccc2c(c1)C1=C(C(=O)C2=O)C(C)(C)C(C)O1 (stereo not shown) [Compound 2]	1250 ± 160 nM	2.15	–	IC50 ([2]; P. falciparum FcB1 (chloroquine-resistant strain), 48 h, read-out: IC50): 580 ± 503 nM
1380 ± 627 nM	produced radicals	+ + +	COc1ccc2c(c1)C(=O)C1=C(C2=O)C(C)(C)C(C)O1 (stereo not shown) [Compound 4]	11800 ± 2200 nM	8.53	decreased	CC50 values fold higher than the IC50 value [2]: 8-9 fold
1520 ± 853 nM	no radicals were detected	–	COc1ccc2c(c1)C(=O)C1=C(OC(C)C1(C)C)C2=O (stereo not shown) [Compound 5]	14900 ± 3230 nM	9.81	–	CC50 values fold higher than the IC50 value [2]: 8-9 fold
19500 ± 7090 nM	produced radicals	+ + +	COc1ccc2c(c1)C(=O)C1=C(OC(C)(C)CC1)C2=O [Compound 6]	> 18400 nM	>0.94	–	ROS after Inhibition of NQO2 with S29434 ([6]; EPR, as above plus S29434 30 µM, grades - to + +, key not given): + +
